Data as given in PubChem BioAssay AID328 (DTP/NCI, 2004).
Where “and” joins values, the source holds several entries; their conditions need not be identical. Equal entries are not always repeated. Inconclusive results and toxic doses are left out.

Test system: BDF1 mice, P388 leukemia ip, median survival T/C
Test: NCI In Vivo Anticancer Drug Screen. Data for tumor model P388 Leukemia (intraperitoneal) in B6D2F1 (BDF1) mice
Conditions: endpoint: median survival time, higher = longer survival
Procedure, shortened: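 Compound-treated tumour-bearing mice were compared with vehicle-treated controls. Survival was recorded, and the value is the treated-group measurement divided by the control-group measurement (T/C).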

[1] = dose: 25.0 mg/kg/injection, schedule: Q01DX009 (ip), vehicle: saline
[2] = dose: 50.0 mg/kg/injection, schedule: Q01DX009 (ip), vehicle: saline
[3] = dose: 25.0 mg/kg/injection, schedule: Q01DX009 (ip), vehicle: water
[4] = dose: 50.0 mg/kg/injection, schedule: Q01DX009 (ip), vehicle: water
[5] = dose: 50.0 mg/kg/injection, schedule: Q04DX003 (ip), vehicle: saline with Tween-80
[6] = dose: 100.0 mg/kg/injection, schedule: Q04DX003 (ip), vehicle: saline with Tween-80
[7] = dose: 200.0 mg/kg/injection, schedule: Q04DX003 (ip), vehicle: saline with Tween-80
[8] = dose: 400.0 mg/kg/injection, schedule: Q04DX003 (ip), vehicle: saline with Tween-80

For `CCCCCCCCCCCCCCCCCCNC(=O)Nc1ccc(C)cc1C`, the T/C (dose: 100.0 mg/kg/injection, schedule: Q04DX003 (ip), vehicle: saline + alcohol) was 91 % of control, the T/C (dose: 200.0 mg/kg/injection, schedule: Q04DX003 (ip), vehicle: saline + alcohol) was 108 % of control and the T/C (dose: 400.0 mg/kg/injection, schedule: Q04DX003 (ip), vehicle: saline + alcohol) was 108 % of control.
For `Cc1ccc2c(c1)CCCN2C`, the T/C [1] was 114 % of control, the T/C [2] was 114 % of control and the T/C (dose: 50.0 mg/kg/injection, schedule: Q04DX003 (ip), vehicle: saline) was 104 % of control. The T/C (dose: 100.0 mg/kg/injection, schedule: Q04DX003 (ip), vehicle: saline) was 104 % of control.
In the case of `CSc1ncc2cnccn12`, the T/C (dose: 12.5 mg/kg/injection, schedule: Q01DX009 (ip), vehicle: water) is reported as 105 % of control, the T/C [3] is reported as 96 % of control and the T/C (dose: 25.0 mg/kg/injection, schedule: Q04DX003 (ip), vehicle: water) is reported as 100 % of control. For the same compound, the T/C [4] was 100 % of control, the T/C (dose: 50.0 mg/kg/injection, schedule: Q04DX003 (ip), vehicle: water) was 104 % of control and the T/C (dose: 100.0 mg/kg/injection, schedule: Q04DX003 (ip), vehicle: water) was 95 % of control.
In the case of `CC(C)(C)c1ccc(OCc2cnc[nH]2)cc1`, the T/C (dose: 100.0 mg/kg/injection, schedule: Q01DX001 (ip), vehicle: saline) is reported as 113 % of control.
For `Oc1ccc2ccccc2c1Cc1c(O)ccc2ccccc12`, the T/C (dose: 50.0 mg/kg/injection, schedule: Q04DX003 (ip), vehicle: other) was 95 % of control, the T/C (dose: 100.0 mg/kg/injection, schedule: Q04DX003 (ip), vehicle: other) was 95 % of control and the T/C (dose: 200.0 mg/kg/injection, schedule: Q04DX003 (ip), vehicle: other) was 104 % of control.
For `c1ccc2c(c1)Cc1c(NC3=NCCO3)cccc1-2`, the T/C [5] was 95 % of control, the T/C [6] was 95 % of control and the T/C [7] was 108 % of control. For the same compound, the T/C [8] was 100 % of control.
For `COC(=O)c1ccccc1NC(=O)NCCBr`, the T/C (dose: 100.0 mg/kg/injection, schedule: Q04DX003 (ip), vehicle: Klucel (hydroxypropylcellulose) (HPC)) was 90 % of control, the T/C (dose: 200.0 mg/kg/injection, schedule: Q04DX003 (ip), vehicle: Klucel (hydroxypropylcellulose) (HPC)) was 100 % of control and the T/C (dose: 400.0 mg/kg/injection, schedule: Q04DX003 (ip), vehicle: Klucel (hydroxypropylcellulose) (HPC)) was 104 % of control.
With `NC(=S)N/N=C/c1nccc2ccccc12` the T/C (dose: 18.8 mg/kg/injection, schedule: Q01DX009 (ip), vehicle: saline with Tween-80) was 158 % of control, the T/C (dose: 37.5 mg/kg/injection, schedule: Q01DX009 (ip), vehicle: saline with Tween-80) was 185 % of control and the T/C (dose: 75.0 mg/kg/injection, schedule: Q01DX009 (ip), vehicle: saline with Tween-80) was 235 % of control. For the same compound, the T/C (dose: 300.0 mg/kg/injection, schedule: Q01DX009 (ip), vehicle: saline with Tween-80) was 91 % of control.
For `COc1cc(OC)cc(C(=O)Br)c1`, the T/C (dose: 100.0 mg/kg/injection, schedule: Q01DX009 (ip), vehicle: saline with Tween-80) was 91 % of control, the T/C [6] was 90 % of control and the T/C (dose: 200.0 mg/kg/injection, schedule: Q01DX009 (ip), vehicle: saline with Tween-80) was 91 % of control. The T/C [7] was 90 % of control, the T/C (dose: 400.0 mg/kg/injection, schedule: Q01DX009 (ip), vehicle: saline with Tween-80) was 91 % of control and the T/C [8] was 95 % of control.
With `NP(=O)(N1CC1)N1CC1` the T/C (dose: 6.25 mg/kg/injection, schedule: Q04DX003 (ip), vehicle: saline) was 100 % of control and the T/C (dose: 25.0 mg/kg/injection, schedule: Q04DX003 (ip), vehicle: saline) was 230 % of control.
For `Nc1nc(C=O)c(-c2cccc3ccccc23)c(=O)[nH]1`, the T/C [6] was 113 % of control and the T/C [8] was 150 % of control.
In the case of `CN(C)CCOc1cccc(OCCN(C)C)n1`, the T/C (dose: 25.0 mg/kg/injection, schedule: Q01DX009 (ip), vehicle: saline with Tween-80) is reported as 100 % of control, the T/C (dose: 25.0 mg/kg/injection, schedule: Q04DX003 (ip), vehicle: saline with Tween-80) is reported as 87 % of control and the T/C (dose: 50.0 mg/kg/injection, schedule: Q01DX009 (ip), vehicle: saline with Tween-80) is reported as 95 % of control. The T/C [5] was 91 % of control.
In the case of `O=P1(NCCCl)OCCCN1CCCl` (stereo unspecified), the T/C (dose: 0.8 mg/kg/injection, schedule: Q01DX010 (ip), vehicle: saline) is reported as 105 % of control, the T/C (dose: 1.5 mg/kg/injection, schedule: Q01DX010 (ip), vehicle: saline) is reported as 100 % of control and the T/C (dose: 3.0 mg/kg/injection, schedule: Q01DX010 (ip), vehicle: saline) is reported as 110 % of control. For the same compound, the T/C (dose: 3.12 mg/kg/injection, schedule: Q01DX009 (ip), vehicle: saline) was 99 % of control, the T/C (dose: 6.0 mg/kg/injection, schedule: Q01DX010 (ip), vehicle: saline) was 110 % of control and the T/C (dose: 6.25 mg/kg/injection, schedule: Q01DX009 (ip), vehicle: saline) was 107 % of control and 115 % of control. For the same compound, the T/C (dose: 12.5 mg/kg/injection, schedule: Q01DX009 (ip), vehicle: saline) was 173 % of control, the T/C (dose: 12.5 mg/kg/injection, schedule: Q01DX010 (ip), vehicle: saline) was 177 % of control and the T/C [1] was 166 % of control and 196 % of control. For the same compound, the T/C [3] was 156 % of control, the T/C (dose: 25.0 mg/kg/injection, schedule: Q01DX010 (ip), vehicle: saline) was 216 % of control and the T/C [2] was 121 % of control. For the same compound, the T/C [4] was 241 % of control, the T/C (dose: 50.0 mg/kg/injection, schedule: Q01DX010 (ip), vehicle: saline) was 200 % of control and the T/C (dose: 100.0 mg/kg/injection, schedule: Q01DX009 (ip), vehicle: saline) was 105 % of control. For the same compound, the T/C (dose: 100.0 mg/kg/injection, schedule: Q01DX010 (ip), vehicle: saline) was 300 % of control, the T/C (dose: 200.0 mg/kg/injection, schedule: Q01DX009 (ip), vehicle: saline) was 87 % of control and the T/C (dose: 200.0 mg/kg/injection, schedule: Q01DX009 (ip), vehicle: water) was 98 % of control. The T/C (dose: 200.0 mg/kg/injection, schedule: Q01DX010 (ip), vehicle: saline) was 105 % of control.
